Assay results published in patent US12329755B2, “Bromodomain inhibitors to target therapy-resistant cancer” (University of Tennessee Research Foundation, priority 2019, dated 2025).

What was measured:
[1] = system: GBM cells; assay: survival of mice after intracranial injection of GBM cells; type: in vivo; conditions: combination with TMZ, intraperitoneal, 10 mg/kg body weight
Method: FIG. 6 is a graph showing the survival curves (percent survival versus days after treatment) of mice after intracranial injection of glioblastoma (GBM) cells and intraperitoneal injection of temozolomide (TMZ) or combinations of TMZ and a Brahma-related gene-1 bromodomain inhibitors (BRIs): PFI-3 or one of the presently disclosed PFI-3 analogs (PAs) IV-073 or IV-085. Five mice per group were treated with TMZ with or without the BRI (10 milligrams per kilogram (mg/kg) body weight.
TMZ with or without a BRI was also tested in mice after intercranial injection of GBM cells.

[2] = system: X10 BTICs; conditions: cited from earlier work
[3] = system: GBM cells; assay: overall statements on GBM cell death and sensitization to TMZ; type: cell-based
Source text: The syntheses of two exemplary PA BRIs, referred to herein as YH-IV-073 (or IV-073), and YH-IV-077 (or IV-077), as well as of PFI-3 (also referred to herein as YH-IV-081), are shown in Scheme 2, below. As shown in Scheme 2, commercially available tert-butyloxycarbonyl (BOC)-protected amine 1 is contacted with 2-bromopyridine (2) to form intermediate 3. The protecting group can be removed (e.g., via hydrolysis) to give the corresponding amine 4. Compound 4 can be coupled with a carboxylic acid (5, 6, or 7) to afford target YH-IV-073, YH-IV-077 and YH-IV-081, respectively. […] These analogs will provide greater insight into the importance of substitution of the A ring.
The synthetic route shown in Scheme 3, below, was used to synthesize new analogs with different substituents in the 2-position of the A-ring, such as YH-IV-085. As shown in Scheme 3, a commercially available 1-phenylprop-2-yn-1-one (e.g., 8 or 9) can be reacted with BOC-protected amine compound 1 to afford a BOC-protected intermediate (e.g., 10 or 11), which can be hydrolyzed to provide corresponding deprotected intermediate (12 or 13). The intermediates can be coupled with the 2-bromopyridine (2) to yield target compounds (e.g., 14 or YH-IV-085), respectively. YH-IV-085 is believed to be the first PFI-3 analog prepared without a 2-hydroxy moiety in the A-ring.

[4] = target: T1, bromodomain of BRG1 (Homo sapiens, UniProt P51532); assay: thermal shift assay of the BRG1 bromodomain in MT330 GBM cells; type: binding; conditions: 44.5° C. to 55.6° C.; PFI-3 30 μM, IV-073 20 μM, two hours; compared to DMSO
T1 construct: The assay involved the use of the bromodomain of BRG1 in MT330 GBM cells; expressed in transfected cells; host or cells: MT330 GBM cells
T1 sequence (P51532 1453-1564 limits assumed): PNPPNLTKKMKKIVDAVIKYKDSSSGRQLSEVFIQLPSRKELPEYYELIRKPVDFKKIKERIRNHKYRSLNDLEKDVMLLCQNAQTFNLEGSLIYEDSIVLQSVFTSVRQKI
Method: FIG. 3 is a series of immunoblot images showing the effects of Brahma-related gene-1 bromodomain inhibitors (BRIs) on the stability of the bromodomain of Brahma-related gene-1 in a thermal assay shift of the bromodomain in glioblastoma cells over a temperature range from 44.5 degrees Celsius (° C.) to 55.6° C. Cells were treated with (middle) PFI-3 (30 micromolar (μM)) for two hours or (right), a PFI-3 analog of the presently disclosed subject matter (IV-073) (20 μM) for two hours. For comparison, control cells treated with dimethyl sulfoxide (DMSO) are shown at […].
To further study the activity of the presently disclosed PFI-3 analogs, a thermal shift assay was employed. The assay involved the use of the bromodomain of BRG1 in MT330 GBM cells at temperatures ranging from 44.5° C. to 55.6° C.

## O=C(/C=C/N1C[C@H]2C[C@@H]1CN2c1ccccn1)c1ccccc1O [PFI-3, (E)-1-(2-hydroxyphenyl)-3-((1R,4R)-5-(pyridin-2-yl)-2,5-diazabicyclo[2.2.1]heptan-2-yl)prop-2-en-1-one]
[1]
  animal survival: enhanced animal survival
[2]; X10 BTICs, PFI-3 treatment
  sensitization to Carmustine: sensitized
[2]; combination of PFI-3 and TMZ
  effect on X10 BTIC proliferation: marked effect on X10 BTIC proliferation
[3]; also in cells resistant to DNA alkylation agents
  sensitizing GBM cells to DNA alkylation by TMZ: capable of sensitizing GBM cells
[3]; used alone
  GBM cell death: do not cause GBM cell death
[4]
  stabilization of the BRG1 bromodomain: stabilizes the BRG1 bromodomain
